Experimental data taken from US11352352B2, “Aminopyrimidine compound, preparation method therefor and use thereof” (BEIJING ADAMADLE BIOTECHNOLOGY LIMITED LIABILITY COMPANY, priority 2017, dated 2022).

Key:
A-431 = test: Cell proliferation inhibition experiment, CellTiter-Glo (CTG) method; type: cell-based; conditions: A-431 cells, 3 days
In short: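 CTG luminescence measured after 3-day compound exposure, with a T0 plate read the day after seeding and solvent wells as control. Nine concentrations, 3-fold steps, in triplicate: A-431 from 30 μM, NCI-H1975 and PC-9 from 1.111 μM. IC50 derived by non-linear S-curve regression.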

PC-9 = test: as above; type: cell-based; conditions: PC-9 cells, 3 days
In short: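 Cells in log-phase growth (viability above 90% by trypan blue) were seeded at 90 μL per well in black-walled, clear-bottom 96-well plates and incubated overnight at 37° C., 5% CO2. A T0 plate was read the next day. Test compounds were added at nine concentrations in triplicate with a solvent control. Viability was measured by CellTiter-Glo luminescence on EnVision, and IC50 came from non-linear S-curve fitting in GraphPad Prism 5.0.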

NCI-H1975 = test: as above; type: cell-based; conditions: for IC50: NCI-H1975 cells, CTG, 3 days; for A-431/NCI-H1975 Selectivity: ratio of A-431 IC50 to NCI-H1975 IC50
In short: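 NCI-H1975 cells with viability above 90% by trypan blue were seeded at 90 μL per well in black 96-well plates and incubated overnight at 37° C., 5% CO2. Compounds were added at nine concentrations in triplicate, and viability was measured with CellTiter-Glo luminescence on EnVision. IC50 came from non-linear S-curve fitting in GraphPad Prism 5.0.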

P-gp = target: T1, P-gp (Homo sapiens, UniProt P08183); test: P-gp substrate evaluation experiment (MDCKII-MDR1 Transwell drug penetration test); type: in vitro ADME; conditions: dog, MDCK-MDR1, pH 7.4; read-out: ER (Efflux Ratio)
T1 construct: expressed in transfected cells; host or cells: MDCKII-MDR1 (MDCKII canine kidney cells expressing MDR1)
Description: P-gp Substrate Evaluation Experiment
Cell Culture • 1) High glucose DMEM medium containing L-glutamine was used and 10% fetal bovine serum, 0.1 mg/mL streptomycin and 0.6 mg/mL penicillin were added. • 2) MDCKII-MDR1 was cultured in a T-75 cell culture bottle. The incubator was set at the condition of 37° C., 5% CO2 and 95% relative humidity. Cells could be inoculated in Transwell when the cell confluence reached 70-90%. • 3) Before cell plant, 50 μL cell culture medium was added to each well in the upper chamber of the Transwell, and […] cell culture medium was added to the lower chamber of the Transwell.
Inoculation of MDCKII-MDR1 Cells • 1) Cell suspension was added to the upper chamber of the 96-well Transwell plate with […] each well, and the final inoculation density was 5.45×10^5 cells/cm^2. • 2) The medium was changed 48 hours after inoculation, the culture was carried out for 4-7 days, and the medium was changed every other day.
Evaluation of Cell Monolayer Integrity • 1) After 4-7 days of culture, MDCKII-MDR1 and MDKII should merge and differentiate completely. At this time, they could be applied to penetration test. • 2) The resistance of cell monolayer was measured by a resistance meter (Millipore, USA) and the resistance of each well was recorded. • 3) After finishing the detection, the Transwell plate was put back into the incubator. • 4) Resistance value was calculated: Resistance measured (ohms)×layer area (cm^2)=TEER value (ohm·cm^2)
If TEER value was less than 42 ohms·cm^2, the well can not be used for penetration testing.
Drug Penetration Test • 1) The MDCKII-MDR1 Transwell plate was taken out from the incubator. The cell monolayer was rinsed with HBSS buffer (25 mM HEPES, pH 7.4) twice and incubated for 30 minutes at 37° C. • 2) The transport rate of compounds from the top to the bottom was determined. […] 70 μL supernatant was drawn, diluted with equal volume of water and then subjected to LC-MS/MS analysis. All samples were prepared in three parallel ways. • 6) The cell monolayer integrity after 2-hour incubation was evaluated by leakage of fluorescent yellow, HBSS (25 mM HEPES, pH 7.4) was used to dilute the stock solution of fluorescent yellow till the final concentration was 100 μM. 100 μL fluorescent yellow solution was added to each well in the upper chamber of the Transwell plate and 300 μL HBSS (25 mM HEPES, pH 7.4) was added to each well in the lower chamber of the Transwell plate. After incubation at 37° C. for 30 minutes, 80 μL solution was drawn respectively from each well in the upper and lower chamber to a new 96-well plate. The fluorescence was determined at 485 nm as excitation wavelength and 530 nm as emission wavelength by using a microplate reader.
Data calculation was carried out through Excel, the apparent permeability index (Papp, cm/s) of compounds was calculated through the formula shown as follow: […]
wherein, the membrane area in the formula is the membrane area of Transwell-96 plate (0.143 cm^2); the unit of incubation time is second (s).
Efflux ratio was calculated through the formula shown as follow: […]

T1 sequence (P08183 whole entry): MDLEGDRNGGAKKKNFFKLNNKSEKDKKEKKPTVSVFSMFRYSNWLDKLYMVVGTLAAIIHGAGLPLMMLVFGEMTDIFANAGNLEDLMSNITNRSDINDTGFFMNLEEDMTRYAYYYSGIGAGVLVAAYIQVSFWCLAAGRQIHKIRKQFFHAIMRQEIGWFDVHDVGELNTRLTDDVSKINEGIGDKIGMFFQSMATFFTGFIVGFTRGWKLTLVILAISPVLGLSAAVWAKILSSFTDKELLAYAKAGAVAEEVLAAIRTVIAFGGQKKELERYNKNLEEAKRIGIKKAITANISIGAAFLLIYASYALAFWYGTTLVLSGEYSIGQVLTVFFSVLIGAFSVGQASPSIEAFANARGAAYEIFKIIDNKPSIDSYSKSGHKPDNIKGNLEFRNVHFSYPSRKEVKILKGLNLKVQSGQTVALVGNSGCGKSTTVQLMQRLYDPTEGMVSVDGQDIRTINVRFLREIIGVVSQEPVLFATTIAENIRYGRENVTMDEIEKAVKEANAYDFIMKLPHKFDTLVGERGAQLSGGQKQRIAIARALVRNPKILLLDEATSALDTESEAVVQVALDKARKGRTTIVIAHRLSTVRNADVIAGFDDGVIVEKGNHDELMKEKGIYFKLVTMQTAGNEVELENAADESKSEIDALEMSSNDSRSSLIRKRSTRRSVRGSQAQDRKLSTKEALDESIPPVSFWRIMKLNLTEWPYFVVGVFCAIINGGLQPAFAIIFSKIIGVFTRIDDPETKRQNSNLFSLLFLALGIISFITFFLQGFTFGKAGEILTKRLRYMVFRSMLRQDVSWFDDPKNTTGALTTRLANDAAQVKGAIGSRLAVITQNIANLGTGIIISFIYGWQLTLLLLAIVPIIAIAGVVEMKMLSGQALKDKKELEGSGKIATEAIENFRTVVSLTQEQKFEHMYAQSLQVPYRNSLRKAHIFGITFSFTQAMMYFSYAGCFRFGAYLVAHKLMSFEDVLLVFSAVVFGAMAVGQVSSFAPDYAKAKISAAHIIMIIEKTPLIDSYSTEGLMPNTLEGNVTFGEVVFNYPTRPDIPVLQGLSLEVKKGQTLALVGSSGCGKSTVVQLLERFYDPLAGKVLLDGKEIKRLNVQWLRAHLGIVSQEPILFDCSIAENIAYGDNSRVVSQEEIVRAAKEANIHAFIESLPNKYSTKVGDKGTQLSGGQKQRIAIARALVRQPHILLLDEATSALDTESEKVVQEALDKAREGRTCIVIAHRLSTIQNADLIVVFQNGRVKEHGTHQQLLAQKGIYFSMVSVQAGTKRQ

| Compound | IC50 (A-431; Homo sapiens, A-431, 72 h) [nM] | IC50 (PC-9; Homo sapiens, PC-9, 72 h) [nM] | IC50 (NCI-H1975; Homo sapiens, NCI-H1975, 72 h) [nM] | efflux ratio at 2 h (P-gp) | IC50 (A-431) [nM] | IC50 (PC-9) [nM] | IC50 (NCI-H1975) [nM] | A-431/NCI-H1975 Selectivity (NCI-H1975) |
| --- | --- | --- | --- | --- | --- | --- | --- | --- |
| C=CC(=O)Nc1cc(Nc2cc(-c3ccc4c(cnn4C)c3)ncn2)c(OC)cc1N(C)C1CCN(C2CCN(C)CC2)CC1 [compound 70] | 1160 | 14.7 | 17.6 | 41.4 |  |  |  | 66.1 |
| C=CC(=O)Nc1cc(Nc2nccc(-c3ccc4c(cnn4C)c3)n2)c(OC)cc1N1CCC(N2CCCC2)CC1 [compound 68] | 921 | 15.3 | 14.7 | 8.98 |  |  |  | 62.7 |
| C=CC(=O)Nc1cc(Nc2cc(-c3ccc4c(cnn4C)c3)ncn2)c(OC)cc1N(C)CCN1CCN(C)CC1 [compound 60] | 2300 | 9.6 | 10.6 | 6.49 |  |  |  | 217.0 |
| C=CC(=O)Nc1cc(Nc2cc(-c3ccc4c(cnn4C)c3)ncn2)c(OC)cc1N1CCC(C2CCN(C)CC2)CC1 [compound 34] | 1950 | 10.7 | 26.3 | 6.12 |  |  |  | 74.1 |
| C=CC(=O)Nc1cc(Nc2cc(-c3ccc4c(cnn4C)c3)ncn2)c(OC)cc1N1CCC(N2C[C@@H](C)N(C)[C@@H](C)C2)CC1 [compound 100] | 654 | 15.3 | 5.7 | 20 |  |  |  | 114.7 |
| C=CC(=O)Nc1cc(Nc2cc(-c3ccc4c(cnn4C)c3)ncn2)c(OC)cc1N1CCN(CCOC)CC1 [compound 99] | 886 | 43.2 | 9.8 | 1.54 |  |  |  | 90.4 |
| C=CC(=O)Nc1cc(Nc2cc(-c3ccc4c(cnn4C)c3)ncn2)c(OC)cc1N1CC(C)N(C)C(C)C1 (centres unmarked) [compound 23] | 617 | 9 | 13.7 | 4.28 |  |  |  | 45.0 |
| C=CC(=O)Nc1cc(Nc2cc(-c3ccc4c(cnn4C)c3)ncn2)c(OC)cc1N(C)CCN(CC)CC [compound 62] | 1170 | 15.7 | 33.5 | 2.44 |  |  |  | 35.0 |
| C=CC(=O)Nc1cc(Nc2cc(-c3ccc4c(cnn4C)c3)ncn2)c(OC)cc1N1CCC(N2CCN(C)CC2)CC1 [compound 33] | 813 | 8.2 | 5.6 | 7.7 |  |  |  | 145.7 |
| C=CC(=O)Nc1cc(Nc2cc(-c3ccc4c(cnn4C)c3)ncn2)c(OC)cc1N1CCC(N2CCOCC2)CC1 [compound 27] |  |  |  | 1.67 | 387 | 21.6 | 14.2 | 27.2 |

Further lines, with some results ahead:

| IC50 (A-431; Homo sapiens, A-431, 72 h) [nM] | IC50 (PC-9; Homo sapiens, PC-9, 72 h) [nM] | IC50 (NCI-H1975; Homo sapiens, NCI-H1975, 72 h) [nM] | efflux ratio at 2 h (P-gp) | IC50 (A-431) [nM] | IC50 (PC-9) [nM] | IC50 (NCI-H1975) [nM] | Compound | A-431/NCI-H1975 Selectivity (NCI-H1975) |
| --- | --- | --- | --- | --- | --- | --- | --- | --- |
| 591 | 23.2 | 12.6 | 34.4 |  |  |  | C=CC(=O)Nc1cc(Nc2cc(-c3ccc4cnn(C)c4c3)ncn2)c(OC(F)F)cc1N1CCC(N2CCCC2)CC1 [compound 164] | 46.9 |
| 533 | 9 | 5.3 | 41.9 |  |  |  | C=CC(=O)Nc1cc(Nc2cc(-c3ccc4c(cnn4C)c3)ncn2)c(OC(F)F)cc1N1CCN(CCN(C)C)CC1 [compound 115] | 100.5 |
| 983 | 11.7 | 10.4 | 11.4 |  |  |  | C=CC(=O)Nc1cc(Nc2cc(-c3ccc4c(cnn4C)c3)ncn2)c(OC)cc1N1CCC(N2CCN(C3COC3)CC2)CC1 [compound 210] | 94.5 |
| 773 | 12.1 | 8.1 | 5.87 |  |  |  | C=CC(=O)Nc1cc(Nc2cc(-c3ccc4c(cnn4C)c3)ncn2)c(OC)cc1N1CCC(N2CC(OC)C2)CC1 [compound 206] | 95.4 |
| 1020 | 12.7 | 12.5 | 15.8 |  |  |  | C=CC(=O)Nc1cc(Nc2cc(-c3ccc4ncsc4c3)ncn2)c(OC)cc1N1CCN(CCN(C)C)CC1 [compound 250] | 81.9 |
| 1050 | 7.3 | 22.7 | 32.2 |  |  |  | C=CC(=O)Nc1cc(Nc2cc(-c3ccc4cnn(C)c4c3)ncn2)c(OC)cc1N1CCC(N(C)C)CC1 [compound 173] | 46.5 |
| 982 | 7.2 | 8.1 | 6.51 |  |  |  | C=CC(=O)Nc1cc(Nc2cc(-c3ccc4cnn(C)c4c3)ncn2)c(OC)cc1N1CCC(N2CCC(OC)C2)CC1 (centres unmarked) [compound 203] | 121.2 |
| 1100 | 7 | 12.5 | 42.6 |  |  |  | C=CC(=O)Nc1cc(Nc2cc(-c3ccc4ncsc4c3)ncn2)c(OC)cc1NCCN(C)C [compound 251] | 88.2 |
| 680 | 4.9 | 9.4 | 15.3 |  |  |  | C=CC(=O)Nc1cc(Nc2cc(-c3ccc4cnn(C)c4c3)ncn2)c(OC)cc1N1CCC(N2CCCC2)CC1 [compound 158] | 72.4 |
| 648 | 19.2 | 8 | 2.28 |  |  |  | C=CC(=O)Nc1cc(Nc2cc(-c3ccc4c(cnn4C)c3)ncn2)c(OC)cc1N1CCC(N2C[C@@H](C)O[C@@H](C)C2)CC1 [compound 103] | 81.0 |
| 946 | 12.3 | 16.8 | 2.17 |  |  |  | C=CC(=O)Nc1cc(Nc2cc(-c3ccc4c(cnn4C)c3)ncn2)c(OC)cc1N(C)CCN(C)C(C)C [compound 138] | 56.3 |
| 544 | 14.2 | 6 | 3.12 |  |  |  | C=CC(=O)Nc1cc(Nc2cc(-c3ccc4c(cnn4C)c3)ncn2)c(OC)cc1OCCN(C)C [compound 104] | 90.6 |
| 578 | 14.8 | 9.6 | 51.7 |  |  |  | COc1cc(N(C)CCN(C)C)c(NC(=O)/C=C/CN(C)C)cc1Nc1cc(-c2ccc3c(cnn3C)c2)ncn1 [compound 131] | 60.2 |
| 954 | 16.3 | 18.6 | 43.9 |  |  |  | C=CC(=O)Nc1c(N(C)CCN(C)C)cc(OC)c(Nc2cc(-c3ccc4cnn(C)c4c3)ncn2)c1F [compound 172] | 51.3 |
| 654 | 8.2 | 9.1 | 67.9 |  |  |  | C=CC(=O)Nc1cc(Nc2cc(-c3ccc4c(cnn4CC)c3)ncn2)c(OC)cc1N1CCN(CCN(C)C)CC1 [compound 116] | 71.9 |
